Experimental data published in US10689622B2, “Culture medium for proliferating stem cell, which contains sulfated compound” (AJINOMOTO CO., INC., priority 2012, dated 2020).

Tests used:
[1] = test system: Human bone marrow-derived mesenchymal stem cells; experiment: Mesenchymal stem cell proliferation system (cell number by DNA quantification); details: growth of mesenchymal stem cell, control ratio
Experimental: Human bone marrow-derived mesenchymal stem cells (Lonza, Human Mesenchymal Stem Cell) cultured in mesenchymal stem cell-dedicated medium (Lonza, MSCGM) or Dulbecco's Modified Eagle Medium (Invitrogen, GIBCO D-MEM) containing inactivated fetal bovine serum (Invitrogen, GIBCO FBS) and penicillin-streptomycin (Sigma-Aldrich Co. LLC.) were cultured in exchanged Lonza serum-free medium. The mesenchymal stem cells thus-acclimated to serum-free culture were suspended in Lonza serum-free medium, and seeded on a 24 well culture plate (Nippon Becton Dickinson Company, Ltd., Falcon culture plate) at 20,000 cells/well or a 6 well culture plate (Nippon Becton Dickinson Company, Ltd., Falcon culture plate) at 50,000 cells/well. Then, a test compound solution after filter sterilization and adjustment to a given concentration was added, and the cells were cultured in an incubator (Thermo Scientific, Forma incubator) under the 5% CO2/37° C. conditions for 7 to 8 days. When the medium exchange was necessary, the medium was exchanged 2 to 3 days after the seeding. In this case, the test compound solution was also added again in the same manner as in seeding. In this case, various compound solutions were added again in the same manner as in seeding. After culturing for 7 to 8 days, the medium was removed and DNA quantification was performed. As a control, the cells were cultured in the same manner in a medium without a test compound and added with phosphate buffered saline.
The medium in the 24 well culture plate was removed, and the cells were washed with phosphate buffered saline. The sodium lauryl sulfate solution (500 μl/well) was added, and the mixture was left standing at 37° C. for 4 hours. The sodium lauryl sulfate solution (1.0 ml) was also added to a cell pellet with a known cell number, and the mixture was left standing at 37° C. for 4 hours. As for the cells in the 24 well culture plate, a part (50 μl) of the lysate was transferred to a 96 well black microplate. The solution used for treating the cell pellets was successively diluted with sodium lauryl sulfate solution and used as solutions for drawing an analytical curve. Also, a part (50 μl) of the solutions for drawing an analytical curve was each transferred to the 96 well black microplate. […] The fluorescence was measured by a microplate reader (excitation wavelength: 355 nm, measurement wavelength: 460 nm) within 5 minutes from the addition. The cell number of the 24 well cell culture plate was calculated from the analytical curve drawn (conversion formula). The evaluation criteria were as follows.

[2] = biological target: T1, bFGF (Homo sapiens, UniProt P09038); experiment: Evaluation of bFGF stabilization in Lonza serum-free medium (ELISA); assay type: biochemical
T1 construct: purchased Lonza (via TAKARA BIO INC.) Ser. No. 00/190,632
Outline: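 Compound in PBS diluted 10-fold into serum-free medium and held sealed at 37 °C for 7 days (some sets 3 days). Remaining bFGF quantified by human bFGF sandwich ELISA against a standard curve. Controls were compound-free PBS-medium kept at 37 °C or 4 °C for the same period.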

T1 sequence (P09038 143-288): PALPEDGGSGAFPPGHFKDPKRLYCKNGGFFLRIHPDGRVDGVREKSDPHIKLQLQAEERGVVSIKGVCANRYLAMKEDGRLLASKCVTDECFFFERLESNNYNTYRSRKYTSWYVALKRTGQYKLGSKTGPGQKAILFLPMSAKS

- concentration showing a suppressive effect on a decrease in the bFGF concentration in the medium ([2]; Lonza serum-free medium, 37° C. for 3 days): not less than 250 ng/ml
- effectiveness ELISA ([2]; effectiveness in ELISA evaluation of mesenchymal stem cells (medium), 4° C. control ratio): + (+ 30%<)
Structure (SMILES): O=S(=O)([O-])OC[C@H]1O[C@@](COS(=O)(=O)[O-])(O[C@H]2O[C@H](COS(=O)(=O)[O-])[C@@H](OS(=O)(=O)[O-])[C@H](OS(=O)(=O)[O-])[C@H]2OS(=O)(=O)[O-])[C@@H](OS(=O)(=O)[O-])[C@@H]1OS(=O)(=O)[O-].[K+].[K+].[K+].[K+].[K+].[K+].[K+].[K+] [sucrose 8SO3K]
- effectiveness cells [1]: ⊚ (⊚ not less than 120%)
- bFGF concentration relative to that of 4° C. control (ELISA) ([2]; Lonza serum-free medium, 37° C. for 3 days, test compound 25 ng/ml): x (bFGF concentration was less than 10% relative to that of 4 °C control)
- bFGF concentration relative to that of 4° C. control (ELISA) ([2]; Lonza serum-free medium, 37° C. for 3 days, test compound 250 ng/ml): − (bFGF concentration was not less than 10% and less than 30% relative to that of 4 °C control)
- bFGF concentration relative to that of 4° C. control (ELISA) ([2]; Lonza serum-free medium, 37° C. for 3 days, test compound 25 μg/ml): +++ (bFGF concentration was not less than 70% relative to that of 4 °C control)
- bFGF concentration relative to that of 4° C. control (ELISA) ([2]; Lonza serum-free medium, 37° C. for 3 days, test compound 250 μg/ml): +++ (bFGF concentration was not less than 70% relative to that of 4 °C control)
- bFGF concentration relative to that of 4° C. control (ELISA) ([2]; Lonza serum-free medium, 37° C. for 7 days, test compound 25 ng/ml): x (bFGF concentration was less than 10% relative to that of 4 °C control)
- bFGF concentration relative to that of 4° C. control (ELISA) ([2]; Lonza serum-free medium, 37° C. for 7 days, test compound 250 ng/ml): x (bFGF concentration was less than 10% relative to that of 4 °C control)
- bFGF concentration relative to that of 4° C. control (ELISA) ([2]; Lonza serum-free medium, 37° C. for 7 days, test compound 25 μg/ml): − (bFGF concentration was not less than 10% and less than 30% relative to that of 4 °C control)
- bFGF concentration relative to that of 4° C. control (ELISA) ([2]; Lonza serum-free medium, 37° C. for 7 days, test compound 250 μg/ml): + (bFGF concentration was not less than 30% and less than 50% relative to that of 4 °C control)
